From US20090118135A1, “METHODS AND COMPOUNDS FOR REGULATING APOPTOSIS” (The Burnham Institute, priority 2007, published 2009)

target: T1, GST-Bfl-1 (Homo sapiens, UniProt Q16548); assay: Bfl-1/FITC-Bid BH3 competitive fluorescence polarization assay; assay type: binding; conditions: primary HTS hits, MLSCN library (PubChem SIDs), Table 5B
T1 construct: lacking their C-terminal transmembrane domains (about the last 20 amino acids) (“ΔTM”); made in house; host or cells: XL-1 Blue E. coli, pGEX 4T-1
T1 sequence (Q16548 1-155 limits assumed): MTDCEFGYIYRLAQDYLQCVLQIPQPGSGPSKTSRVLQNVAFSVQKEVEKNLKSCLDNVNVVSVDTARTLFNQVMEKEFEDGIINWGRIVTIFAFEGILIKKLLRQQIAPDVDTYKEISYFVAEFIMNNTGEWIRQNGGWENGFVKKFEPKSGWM

| SMILES | % Activity [%] | FRatio |
| --- | --- | --- |
| COC(=O)c1[nH]c2ccc(C)cc2c1NC(=O)CCN1CCN(Cc2ccc3c(c2)OCO3)CC1 [Compound 862218] | 69.7 | 0.81 |
| Cc1c(Cl)cnc(NC(=O)COC(=O)C(NC(=O)c2ccco2)C(C)C)c1Cl (stereo not shown) [Compound 3711777] | 108.1 | 0.66 |
| COc1ccc(-c2coc3c(CN4CCCCC4)c(O)c(CN4CCCCC4)c(O)c3c2=O)cc1 [Compound 4244723] | 82.5 | 0.51 |
| COc1ccc(OC)c(NC(=O)CCN2CCC(C)CC2)c1 [Compound 846609] | 73 | 0.65 |
| COc1cccc(C(=O)NC2CC3CCCC(C2)N3CC(=O)Nc2ccccc2)c1 (stereo not shown) [Compound 847772] | 90 | 0.72 |
| Cc1cc(C)c2cc3c(ccn3C3OC[C@H](O)[C@H](O)[C@H]3O)cc2n1 (stereo partly shown) [Compound 4247900] | 52.1 | 1.1 |
| CC(=O)c1sc2nc(SCC(=O)N3CCCCC3)nc(O)c2c1C [Compound 4259313] | 57 | 0.82 |
| CC(=N)/C(C#N)=C(/O)CSc1nnc(NC(C)C)s1 [Compound 3717601] | 84.1 | 0.47 |
| COc1ccc(C(=O)Nc2ccc(N3CCCC3)cc2)cc1 [Compound 14739290] | 78.8 | 0.85 |
| Cc1csc(N/N=C/c2ccc(O)c([N+](=O)[O-])c2)n1 [Compound 14746238] | 57.1 | 0.84 |
| COc1ccc(NC(=O)c2noc3c2CCC3)cc1 [Compound 14733727] | 102.1 | 0.93 |

Results, then the compound that gave them:

| % Activity [%] | FRatio | SMILES |
| --- | --- | --- |
| 89.8 | 0.61 | O=c1c([N+](=O)[O-])cc(C(F)(F)F)cn1Cc1cccc(Cl)c1 [Compound 17402915] |
| 54.8 | 0.6 | C=CCn1c(SCc2cc(=O)n3ccsc3n2)nnc1C1CCCCC1 [Compound 3716212] |
| 89.8 | 0.68 | Cn1c(C(C#N)C2=C(Cl)C(=O)N(c3ccccc3)C2=O)nc2ccccc21 (stereo not shown) [Compound 3716185] |
| 71.4 | 1 | CCOc1ccc(C(=O)OCC(=O)NCc2ccco2)cc1OCC [Compound 3714498] |
| 105.8 | 0.67 | CC(=N)/C(C#N)=C(\O)CSc1nc2ccccc2[nH]1 [Compound 17385704] |
| 62.6 | 0.6 | CN(C)c1ccc(NC(=O)CN2C(=O)CC(c3ccccc3)=Nc3ccccc32)cc1 [Compound 853473] |
| 57.9 | 0.72 | O=C(C[n+]1ccc(C(=O)N/N=C/c2ccc(O)cc2)cc1)c1ccccc1 [Compound 14746260] |
| 66.5 | 0.86 | Cc1ccc(S(=O)(=O)Cc2ccc(C(=O)O)o2)cc1 [Compound 14737647] |
| 69.4 | 0.82 | C=CCSc1nnc2nc3c(nn12)c1cc(C)ccc1n3CC=C [Compound 7973953] |
| 58.4 | 0.32 | O=c1nc2s/c(=C\c3ccco3)c(=O)n2nc1Cc1ccc(F)cc1 [Compound 863170] |
| 64.5 | 0.95 | Cc1cccc2cc(C(c3nnnn3C(C)(C)C)N(Cc3ccco3)CC3CCCO3)c(O)nc12 (stereo not shown) [Compound 14720806] |
| 54.2 | 0.88 | C=CCn1c(SCC(=O)c2ccc(O)c(O)c2)nnc1-c1ccccc1OC [Compound 863840] |
| 107.1 | 1.18 | O=C(NCc1ccccn1)c1ccc2nc(-c3ccco3)c(-c3ccco3)nc2c1 [Compound 4245216] |
| 82.6 | 1.32 | c1ccc(-c2nn3c(Cn4nnc5ccccc54)nnc3s2)nc1 [Compound 865899] |
| 113.7 | 0.86 | COc1ccc(N2Cc3cccc(C(=O)O)c3C2=O)cc1 [Compound 7969281] |
